In data set [1] the test system is C6 cells. Nature of the data set: LDH release assay, C6. It counts as cell-based. To be noted: 24 h, different doses. As for the experimental part: (§1) Reduction of 3-4,5-dimethylthiazol-2-yl)-2,5-diphenyltetrazolium bromide (MTT) to formazan depends on mitochondrial activity of cultured cells, absorption of crystal violet dye correlates with the number of adherent, live cells, while the release of cytosolic lactate dehydrogenase (LDH) indicates the disruption of membrane integrity caracteristic for necrotic cells. The cells were seeded in flat-bottom 96-well plates in a final volume of 200 μl of culture medium containing different agents, and the assays were performed after 24 h incubation exactly as previously described (Mijatovic et al. 2004, Decker et al., 1998). Mitohondrial-dependent production of formazan and intensity of absorbed crystal violet by adherent cells were assessed by an automated microplate reader at 570 nm, while the pyruvate-mediated conversion of 2,4-dinitrophenylhydrazine into visible hydrazone precipitate in LDH assay was measured at 492 nm. The % of cytotoxicity as indicated by LDH release was calculated as: (E−C)/(T−C)×100, where E is the experimental absorbance of cell cultures, C is the control absorbance of cell-free culture medium, and T is the absorbance corresponding to the maximal (100%) LDH release of Triton-lysed cells.
FIG. 4. […] Results are calculated as indicated in materials and methods and presented as mean±SD from representative of three independent experiment (*p <0.05). […]

The test system of data set [2] is mouse fibroblasts. As to the kind of experiment: Cell viability by CV test, primary fibroblasts. It counts as cell-based. Conditions: 24 h, Sag at its IC50 dose. The source says:
(§2) Rat glioma C6 and human glioblastoma U251 cell lines were a kind gift from Dr. Pedro Tranque (Universidad de Castilla-La Mancha, Albacete, Spain), murine melanoma B 16, and human adenocarcinoma HeLa, were a kind gift from Dr. Sinisa Radulovic (Institute for Oncology and Radiology of Serbia, Belgrade, Serbia) while mouse fibrosarcoma L929 was obtained from the European Collection of Animal Cell Cultures (Salisbury, UK). Human breast HCC1419 and prostate PC-3 cells were purchased from LGC Promochem srl (Venezia, Italy). Primary mouse fibroblasts and rat astrocytes were prepared as described (Mijatovic et al. 2004). […]
Reduction of 3-4,5-dimethylthiazol-2-yl)-2,5-diphenyltetrazolium bromide (MTT) to formazan depends on mitochondrial activity of cultured cells, absorption of crystal violet dye correlates with the number of adherent, live cells, while the release of cytosolic lactate dehydrogenase (LDH) indicates the disruption of membrane integrity caracteristic for necrotic cells. […] Mitohondrial-dependent production of formazan and intensity of absorbed crystal violet by adherent cells were assessed by an automated microplate reader at 570 nm, while the pyruvate-mediated conversion of 2,4-dinitrophenylhydrazine into visible hydrazone precipitate in LDH assay was measured at 492 nm. […]
(§3) FIG. 2. […] Cell viability was then evaluated by CV test. […]

Data set [3] relates to B16 cells. Nature of the data set: Melanin determination, B16. To be noted: 18.8 μM, 24 h. It is filed as cell-based, mouse. On the procedure:
Tyrosinase activity was determined by measuring the rate of oxidation of L-DOPA^34. Briefly, sub-confluent cultures in 6-well plate were lysed in 100 μl phosphate buffer pH 6.8-1% Triton X-100 and than centrifuged at 10000 rpm for 5 min. 40 μl of each extract was mixed with 100 μl of L-DOPA substrate solution (2 mg/ml). Enzymatic reaction was carried out at 37° C. and the absorbance at 570 nm was read every 10 min for at least 1 h. The final activity was corrected by the total amount of protein estimated by Bradford assay. For melanin determination cells were incubated in 6 well plate for 24 h, trypsinized, counted and than lysed in 100 μl of 1M NaOH. 400 μl of distilled water was added and samples were incubated at 60° C. for 1 h. Thereafter, absorbance of dissolved dye was measured at 492 nm.
FIG. 5. […] Cell morphology was assessed by light microscopy (A). Markers of cell differentiation of C6 and B16 cells, galactocerebroside, GFAP and MBP were determined by cELISA and melanin and tyrosinase activity were determined as described in material and methods (B). Cyclin D3 and p53 expression were evaluated by cELISA (C, upper panels), immunocytochemistry (C, middle panel) and Western blot (C, lower panel). The results were presented as mean±SD from three independent experiments. *p<0.05, refers to untreated cultures.

The subject of data set [4] is transformed human (HeLa, BT20, HCC 1419, PC-3) and rodent (C6, B16) cell lines. As to the kind of experiment: Cell viability by crystal violet assay, tumor cell line panel. Conditions: 24 h. It is filed as cell-based, rat, mouse.
Description: as §2, with “2004). Cells were grown in HEPES-buffered RPMI 1640 medium supplemented with 5% FCS, 2 mM glutamine, 0.01% sodium pyruvate, 5×10^−5 M 2-mercaptoethanol, and antibiotics (culture medium) at 37° C. in a humidified atmosphere with 5% CO2. After the conventional trypsinization procedure cells were seeded at 1×10^4/well in 96-well, 2×10^5/well in 6-well plate or 3×10^4/well in 4-well chamber slide, cultivated overnight, and then exposed to drug.” for “2004).”
as §1, with “The cells were seeded in flat-bottom 96-well plates in a final volume of 200 μl of culture medium containing different agents, and the assays were performed after 24 h incubation exactly as previously described (Mijatovic et al. 2004, Decker et al., 1998).” left out
as §3

For `CC(C)(C)NC(=O)[C@@H]1C[C@@H]2CCCC[C@@H]2CN1C[C@@H](O[N+](=O)[O-])[C@H](Cc1ccccc1)NC(=O)[C@H](CC(N)=O)NC(=O)c1ccc2ccccc2n1` [Saq-NO2, nitric ester of Saquinavir], in data set [1], the “LDH release (cytotoxicity, necrosis)” value is recorded as “significant percentage of C6 cytotoxicity was detected only upon the highest dose”. Besides, the “effect on viability of non-transformed primary fibroblasts” value in data set [2] is “did not affect the viability”. Moreover, the melanin content entry in data set [3] is on record as “unchanged”. For the same compound, the “anti-tumor potential (viability of tumor cell lines)” value in data set [4] is reported as “strong anti-tumor potential”. In addition, the “IC50 value relative to the parent drug” value in data set [4] (tumor cell lines) is reported as “two to four fold lower”.
For the compound `CC(C)(C)NC(=O)[C@@H]1C[C@@H]2CCCC[C@@H]2CN1C[C@@H](O)[C@H](Cc1ccccc1)NC(=O)[C@H](CC(N)=O)NC(=O)c1ccc2ccccc2n1` [Saq, Saquinavir, reference compound], the “LDH release (cytotoxicity, necrosis)” value in data set [1] is on record as “induced LDH release in both cell lines in a dose-dependent way”. In data set [2], the “effect on viability of non-transformed primary fibroblasts” value is listed as “highly toxic”. In addition, the melanin content result in data set [3] is reported as “increased”. For the same compound, in data set [4], the “anti-tumor potential (viability of tumor cell lines)” value was “strong anti-tumor potential”.

Values taken from US8563578B2, “Antitumor properties of NO modified protease inhibitors” (Onconox APS, priority 2008, dated 2013).
